Laboratory results from patent publication US12648948B2, “Methods and compositions for treating cancer” (UNITED STATES GOVERNMENT AS REPRESENTED BY THE DEPARTMENT …, priority 2017, dated 2026).

Experiments:
[1] = tested on: Axl; experiment: Western blot, Axl activation (pAxl) in glioma cells; details: erlotinib 48 h; patient derived GBM neurospheres and all cell lines examined
Protocol: Western blot analysis was performed according to standard protocols. In all experiments, before the addition of EGF or erlotinib established cells were cultured overnight in serum free DMEM and primary GBM neurospheres were EGF starved overnight. Cells not treated with EGF or erlotinib were also serum or EGF starved. EGFR (06-847, 1 μg/ml) antibody was from Millipore. pEGFR-1068 (2236), pERK (4376) ERK (4695), p34 (9251), JNK (9252), STAT3(9139), pAkt (0915) and pSTAT3 (9131) antibodies were from Cell Signaling Technology (Danvers, MA) were used a 1/1000 dilution; TNFR1 (sc-8436), ERK2 (sc-154). Akt (sc-1619), and β-Actin (sc-47778) were from Santa Cruz Biotechnology (Dallas, TX) were used at a concentration of 1 μg/ml. GAS6 (AF885), pAxl (AF2228) and Axl (AF154) were from R&D Biosystems (Minneapolis, MN) were used at a concentration of 1 μg/ml c-JUN antibody (ab31419) was from Abcam (Cambridge, MA) and was used at 2 μg per chromatin IP reaction.

[2] = tested on: GAS6; experiment: GAS6 expression (real time PCR, ELISA, Western blot); format: cell-based, human; details: erlotinib; patient derived neurospheres and established GBM cell lines
Protocol: Total RNA was isolated by TRIzol Reagent (Ambion). cDNA Reverse Transcription were performed by using High-Capacity cDNA Reverse Transcription Kit (Applied Biosystems). […] Each PCR was carried out in triplicate in a 20 μl volume using SYBR Green Master Mix (Applied Biosystems) for 15 minutes at 95° C. for initial denaturing, followed by 40 cycles of 95° C. for 15 s and 60° C. for 60 s in ViiA 7 Real-Time PCR System (Applied Biosystems). At least two independent experiments were done. Values for each gene were normalized to expression levels of GAPDH mRNA. The following primers were used: TNF, [NT] ID NO:3) and [NT] ID NO:4); […] GAPDH, [NT] ID NO:7) and [NT] ID NO:8). […] After 48 hours, supernatant and cell lysates were collected. Supernatant medium was concentrated 5-10-fold with Pierce protein concentrator (ThermoFisher). TNF protein concentration in supernatant, cell lysates and tissue extracts was determined by ELISA using a commercial TNF detection kit (ThermoFisher) according to manufacturer's instructions. Additionally, GAS6 protein concentration in supernatant was measured by ELISA kit (LifeSpan BioSciences).

[3] = tested on: JNK-Axl-ERK signaling axis; experiment: Signal transduction in intracranial GBM9 tumors (Western blot, IHC); format: in vivo, mice; details: thalidomide given with erlotinib
Protocol: To detect the in vivo levels of TNF, 1×10^6 GBM9 cells were injected into the right flanks of nude mice. When the subcutaneous tumor reached a volume of around 200 mm^3, the mice were treated with erlotinib to monitor the upregulation of TNF protein. The animals were dosed consecutively for 1, 2, 7 or 14 days and then sacrificed. The animals without treatment were considered as control (0-day treatment). Tumor tissues were rinsed in PBS and protein was extracted to analyze the TNF levels using ELISA and also used for western blot. To detect the protein expression in mice brain tumor tissues upon drug treatment, the same procedure was performed in orthotopic models. Additionally, with orthotopic models, mice were divided into four groups (control gavage group, erlotinib group, thalidomide group and erlotinib plus thalidomide, n=3). After 48 hours treatment tumors were harvested and subjected to Western blot and immunostaining.
Tumors from nude mice brains were fixed in 10% formalin and embedded in paraffin. Paraffin-embedded sections were cut at five-micrometer thickness. Immunohistochemical staining was performed using the ABC streptavidin-biotin method with the Vectastain ABC kit (Vector Laboratories, Burlingame, CA, USA) according to the manufacturer's protocol. Briefly, after deparaffinization and rehydration, endogenous peroxidase activity was quenched by a 10 min incubation in 3% H2O2. For antigen retrieval, the tissue sections were boiled in 10 mM sodium citrate buffer (pH 6.0) for 20 minutes. Binding of primary anti-pERK (1:100, Cell Signaling Technology, 4376) or anti-pJNK antibody (1:200, Cell signaling Technology, 4668) or anti-pAXL(1:400, R&D, AF2228) was carried out overnight at 4° C. The signal was detected by using the Sigmafast 3,3′-Diaminobenzidine tablets (DAB; Sigma, St. Louis MO). The sections were counterstained lightly with hematoxylin. The IHC staining intensity was scored semiquantitatively as: 0=No positive staining; 1=1-25% tumor cells stained, 2=26%-75% tumor cells stained and 3=>75% tumor cells stained.

[4] = tested on: TNF; experiment: TNF mRNA (qRT-PCR) and TNF ELISA in glioma cells; format: cell-based, human
Protocol: Total RNA was isolated by TRIzol Reagent (Ambion). cDNA Reverse Transcription were performed by using High-Capacity cDNA Reverse Transcription Kit (Applied Biosystems). PCR primers were synthesized by IDT (Coralville, IA). Each PCR was carried out in triplicate in a 20 μl volume using SYBR Green Master Mix (Applied Biosystems) for 15 minutes at 95° C. for initial denaturing, followed by 40 cycles of 95° C. for 15 s and 60° C. for 60 s in ViiA 7 Real-Time PCR System (Applied Biosystems). At least two independent experiments were done. Values for each gene were normalized to expression levels of GAPDH mRNA.
2×10^6 cells were incubated in serum-free or EGF free medium containing different concentrations of erlotinib or DMSO. After 48 hours, supernatant and cell lysates were collected. Supernatant medium was concentrated 5-10-fold with Pierce protein concentrator (ThermoFisher). TNF protein concentration in supernatant, cell lysates and tissue extracts was determined by ELISA using a commercial TNF detection kit (ThermoFisher) according to manufacturer's instructions. Additionally, GAS6 protein concentration in supernatant was measured by ELISA kit (LifeSpan BioSciences).

[5] = tested on: GBM9 subcutaneous tumors; experiment: Subcutaneous GBM9 xenograft tumor growth; format: in vivo, athymic nude mice; details: erlotinib 50 mg/kg oral gavage, SP600125 40 mg/kg i.p., thalidomide 150 mg/kg i.p., daily for 10 days
Protocol: 4 to 6 weeks old female athymic nude mice were purchased from Charles River Laboratories. The mice were housed in plastic cages (4-5 mice per cage) in a room with a 12 hour day-night cycle. 1×10^6 GBM9 cells were subcutaneously injected into the right flank of each nude mouse. […] The mice were randomly divided into control and treatment groups, mice were treated with drugs using the indicated doses. For combination treatment, both drugs were given concurrently for indicated periods. Tumor dimensions were measured by caliper every two days and tumor volumes calculated by the formula: volume=length×width×width/2. Mice were sacrificed when tumors reached over […] or 24 days from the first day of treatment.

[6] = tested on: Met; experiment: Western blot, Met activation in glioma cells; format: cell-based, human; details: erlotinib; established cell lines and patient derived neurospheres
Protocol: Western blot analysis was performed according to standard protocols.

SMILES: C#Cc1cccc(Nc2ncnc3cc(OCCOC)c(OCCOC)cc23)c1 [erlotinib]
- Axl phosphorylation [1]: phosphorylation of the RTK Axl
- GAS6 expression [2]: increase in GAS6
- JNK-Axl-ERK signaling axis in intracranial tumors (Western blot) ([3]; erlotinib 50 mg/kg): Activation of the JNK-Axl-ERK signaling axis can be detected in intracranial tumors
- pAxl, pJNK and pERK immunostaining of brain sections ([3]; orthotopic model): higher expression of pAxl, pJNK and pERK compared to vehicle group
- TNF mRNA in GBM622 cells ([4]; GBM622 neurospheres (very low EGFR), erlotinib 100 nM, 24 h): No increase in TNF is detected
- TNF mRNA levels ([4]; erlotinib 100 nM (GBM9, GBM39) or 1 μM (U87EGFRwt, U87EGFRvIII)): significant and rapid increase in TNF mRNA levels
- TNF protein level (ELISA) ([4]; supernatants of erlotinib treated cells): increase in TNF was confirmed at a protein level
- Growth of subcutaneous tumors [5]: no significant effect on the growth of tumors
- Met activation [6]: induces activation of Met in established cell lines, but only in one patient derived neurosphere 987
